# Laboratory results: patent US20250223281A1, “ANTIDIABETIC COMPOUNDS AND COMPOSITIONS” (REZUBIO PHARMACEUTICALS CO., LTD, priority 2022, published 2025)
# Biological target: T1, GPR40 (Homo sapiens, UniProt O14842)
# T1 construct: expressed in transfected cells; host or cells: HEK293 cells stably expressing GPR40 (Hygromycin selection)
# Assay: IP1 accumulation assay in HEK293 cells stably expressing GPR40
# Type: cell-based
# Experimental: IP1 accumulation assay was used to evaluate the potency of compounds. HEK293 cells stably expressing GPR40 were cultured in 5% CO2 incubator (ThermoFisher) in maintenance media (Dulbecco's modified Eagle's medium with 4.5 g/L of glucose, 10% fetal bovine serum, 100 μg/mL Hygromycin, and Penicillin (100 U/mL)/Streptomycin (100 μg/mL)) till 100% confluency. Cells were harvested freshly, spun down at 300×g for 5 min, and resuspended in pre-warmed 1× stimulant buffer from Cisbio IP-One HTRF Detection kit (Cisbio). Cell density was adjusted to 2.0×10^6 cells/mL. DMSO was used as blank control and AMG-1638 (CAS #: 1142214-62-7) as positive control. Compounds were prepared at 10 mM in DMSO and 5 nL of 3× serially diluted compounds (10 concentrations) were added to each well of the 384-LDV assay plate (Corning) by using ECHO 550 (Labcyte). Five μL of cells in suspension were transferred into each well by using Multidrop Combi Reagent Dispenser (ThermoFisher). Assay plate was then sealed and incubated at 37° C. for 2 hours. IP-d2 reagent and anti-IP1 reagent were prepared following the manual (Cisbio). Five μL of IP1-d2 and then 5 μL of anti-IP1 antibody was added to each well sequentially. Assay plate was incubated at room temperature for 60 min and then read at 665 nm/615 nm on an Envision plate reader (PerkinElmer). The ratio of values obtained at 665 nm and 615 nm was used for calculation of IP1 accumulation: % Effect=(Ratiosample−Ratioblank)/(RatioAMG-1638−Ratioblank)×100. Dose curve was fitted and EC50 of each compound was calculated by using XLFit.
# [1] = IP1 accumulation, HEK293 cells stably expressing GPR40, 2 hours at 37° C., % effect relative to AMG-1638, table of Biological Example 1
# [2] = Tables A-1a to A-7b (structure-property relationship), obtained by methods of Biological Example 1
# T1 sequence (O14842 whole entry): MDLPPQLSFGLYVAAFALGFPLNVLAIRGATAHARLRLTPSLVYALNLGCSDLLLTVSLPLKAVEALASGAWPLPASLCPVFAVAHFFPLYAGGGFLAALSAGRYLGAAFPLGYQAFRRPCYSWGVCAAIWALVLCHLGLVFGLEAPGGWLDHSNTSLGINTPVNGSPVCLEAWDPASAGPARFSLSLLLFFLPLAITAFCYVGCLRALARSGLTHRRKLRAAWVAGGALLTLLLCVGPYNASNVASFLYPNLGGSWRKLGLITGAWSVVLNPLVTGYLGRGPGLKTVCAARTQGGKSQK
SMILES,EC50 [1],EC50 [2]
C[C@H](C(=O)O)[C@H](c1ccc2c(c1)O[C@@H](C1CCN(Cc3cc(-c4cn(CCCCCCCCCCCC(=O)NCCN(CCC(=O)NCCN)CCC(=O)NCCN)nn4)ccc3OC(F)(F)F)CC1)CC2)C1CC1 [Example 36],403 nM,403 nM
COc1ccc(F)c(-c2ccc(COc3cccc([C@@H](CC(=O)O)C4CC4)c3)cc2CC(C)(C)Cn2cc(CCCCCCCCCCCCCCCCCC(=O)NCC[N+](C)(C)C)nn2)c1 [Example 38],5.42 nM,–
C[C@H](C(=O)O)[C@H](c1ccc2c(c1)O[C@@H](C1CCN(Cc3cc(-c4cn(CCCCCCCCCCCCCCCC(=O)NCCN(CCC(=O)NCCN)CCC(=O)NCCN)nn4)ccc3OC(F)(F)F)CC1)CC2)C1CC1 [Example 39],0.83 nM,0.83 nM
COc1ccc(F)c(-c2ccc(COc3cccc([C@@H](CC(=O)O)C4CC4)c3)cc2C(C)(C)c2cn(CCCCCCCCCCCCCCCC(=O)NCCN(CCC(=O)NCCN)CCC(=O)NCCN)nn2)c1 [Example 40],25.3 nM,–
COc1ccc(C(=O)N(CC(C)(C)CCCCCCn2cc(CCCCCCCCCCCCCCCCCC(=O)NCC[N+](C)(CCC(=O)NCCN)CCC(=O)NCCN)nn2)c2cccc(C)n2)c(N2CCC(COc3cc([C@@H](CC(=O)O)C4CC4)ccn3)CC2)c1 [Example 42],0.29 nM,–
COc1ccc(C(=O)N(CC(C)(C)CCCCCCn2cc(CCCCCCCCCCCCC(=O)NCC[N+](C)(CCC(=O)NCCN)CCC(=O)NCCN)nn2)c2cccc(C)n2)c(N2CCC(COc3cc([C@@H](CC(=O)O)C4CC4)ccn3)CC2)c1 [Example 43],0.21 nM,0.21 nM
COc1ccc(C(=O)N(CC(C)(C)CCCCCCn2cc(CCCCCCCCCCCCCCCCCC(=O)NCC[N+](C)(C)C)nn2)c2cccc(C)n2)c(N2CCC(COc3cc([C@@H](CC(=O)O)C4CC4)ccn3)CC2)c1 [Example 44],1.74 nM,–
C[C@H](C(=O)O)[C@H](c1ccc2c(c1)O[C@@H](C1CN(Cc3cc(-c4cn(CCCCCCCCCCCCCCCCCC(=O)NCC[N+](C)(CCC(=O)NCCN)CCC(=O)NCCN)nn4)ccc3OC(F)(F)F)C1)CC2)C1CC1 [Example 45],0.68 nM,–
C[C@H](C(=O)O)[C@H](c1ccc2c(c1)O[C@@H](C1CCN(Cc3cc(-c4cn(CCCCCCCCCCCCCCCCCC(=O)NCC[N+](C)(C)CCCS(=O)(=O)[O-])nn4)ccc3OC(F)(F)F)CC1)CC2)C1CC1 [Example 46],2.03 nM,–
COc1ccc(F)c(-c2ccc(COc3cccc([C@@H](CC(=O)O)C4CC4)c3)cc2C(C)(C)c2cn(CCCCCCCCCCCCCCC(=O)NCCN(CCC(=O)NCCN)CCC(=O)NCCN)nn2)c1 [Example 47],117 nM,–
COc1ccc(F)c(-c2ccc(COc3cccc([C@@H](CC(=O)O)C4CC4)c3)cc2CC(C)(C)Cn2cc(CCCCCCCCCCCCCCCCCC(=O)NCC[N+](C)(C)CCCS(=O)(=O)[O-])nn2)c1 [Example 48],4.7 nM,–
COc1ccc(F)c(-c2ccc(COc3cccc([C@@H](CC(=O)O)C4CC4)c3)cc2CC(C)(C)Cn2cc(CCCCCCCCCCCCCCC(=O)NCCN(CCC(=O)NCCN)CCC(=O)NCCN)nn2)c1 [Example 49],19.9 nM,19.9 nM
C[C@H](C(=O)O)[C@H](c1ccc2c(c1)O[C@@H](C1CCN(Cc3cc(-c4cn(CCCCCCCCCCCCCCCCCCN(C)CCOCCOCCOCCOCCN5C[C@H](O)[C@@H](O)[C@H](O)[C@H]5CO)nn4)ccc3OC(F)(F)F)CC1)CC2)C1CC1 [Example 50],8.46 nM,–
COc1ccc(F)c(-c2ccc(COc3cccc([C@@H](CC(=O)O)C4CC4)c3)cc2C(C)(C)c2cn(CCCCCCCCCCCCCCC(=O)NCC[N+](C)(CCC(=O)NCCN)CCC(=O)NCCN)nn2)c1 [Example 51],318 nM,–
COc1ccc(F)c(-c2ccc(COc3cccc([C@@H](CC(=O)O)C4CC4)c3)cc2CC(C)(C)Cc2cn(CCCCCCCCCCCCCCC(=O)NCCN(CCC(=O)NCCN)CCC(=O)NCCN)nn2)c1 [Example 52],26 nM,26 nM
COc1ccc(C(=O)N(CC(C)(C)CCCCCCn2cc(CCCCCCCCC(=O)NCC[N+](C)(CCC(=O)NCCN)CCC(=O)NCCN)nn2)c2cccc(C)n2)c(N2CCC(COc3cc([C@@H](CC(=O)O)C4CC4)ccn3)CC2)c1 [Example 53],3.18 nM,3.81 nM

SMILES,EC50 [1],EC50 [2]
COc1ccc(C(=O)N(CC(C)(C)CCCCCCn2cc(CCCCCCCCCCC(=O)NCC[N+](C)(CCC(=O)NCCN)CCC(=O)NCCN)nn2)c2cccc(C)n2)c(N2CCC(COc3cc([C@@H](CC(=O)O)C4CC4)ccn3)CC2)c1 [Example 54],1.71 nM,1.71 nM
COc1ccc(F)c(-c2ccc(COc3cccc([C@@H](CC(=O)O)C4CC4)c3)cc2CC(C)(C)Cn2cc(CCCCCCCCCCCCCC(=O)NCCN(CCC(=O)NCCN)CCC(=O)NCCN)nn2)c1 [Example 55],138 nM,138 nM
COc1ccc(F)c(-c2ccc(COc3cccc([C@@H](CC(=O)O)C4CC4)c3)cc2CC(C)(C)Cn2cc(CCCCCCCCCCC(=O)NCCN(CCC(=O)NCCN)CCC(=O)NCCN)nn2)c1 [Example 56],1760 nM,1760 nM
COc1ccc(F)c(-c2ccc(COc3cccc([C@@H](CC(=O)O)C4CC4)c3)cc2CC(C)(C)Cn2cc(CCCCCCCCCCCCCC(=O)NCC[N+](C)(CCC(=O)NCCN)CCC(=O)NCCN)nn2)c1 [Example 57],63.1 nM,93.1 nM
COc1ccc(F)c(-c2ccc(COc3cccc([C@@H](CC(=O)O)C4CC4)c3)cc2CC(C)(C)Cn2cc(CCCCCCCCCCCCCCC(=O)NCC[N+](C)(CCC(=O)NCCN)CCC(=O)NCCN)nn2)c1 [Example 58],36.5 nM,8.14 nM
COc1ccc(F)c(-c2ccc(COc3cccc([C@@H](CC(=O)O)C4CC4)c3)cc2CC(C)(C)Cn2cc(CCCCCCCCCCC(=O)NCC[N+](C)(CCC(=O)NCCN)CCC(=O)NCCN)nn2)c1 [Example 59],1260 nM,1260 nM
COc1ccc(C(=O)N(CC(C)(C)CCCCCCn2cc(CCCCCCCCCCCCC(=O)NCCN(CC(=O)NCCN)CC(=O)NCCN)nn2)c2cccc(C)n2)c(N2CCC(COc3cc([C@@H](CC(=O)O)C4CC4)ccn3)CC2)c1 [Example 60],0.44 nM,–
COc1ccc(C(=O)N(CC(C)(C)CCCCCCn2cc(CCCCCCCCCCCCC(=O)NCC[N+](C)(CC(=O)NCCN)CC(=O)NCCN)nn2)c2cccc(C)n2)c(N2CCC(COc3cc([C@@H](CC(=O)O)C4CC4)ccn3)CC2)c1 [Example 61],0.23 nM,–
COc1ccc(C(=O)N(CC(C)(C)CCCCCCCCCCCCCCCCCCCC(=O)NCCN(CC(=O)NCCN)CC(=O)NCCN)c2cccc(C)n2)c(N2CCC(COc3cc([C@@H](CC(=O)O)C4CC4)ccn3)CC2)c1 [Example 64],0.68 nM,–
"COc1ccc(C(=O)N(CC(C)(C)CCCCCCCCCCCCCCCCCCCC(=O)NCC[N+](C)(CCC(=O)NCCN)CCC(=O)NCCN)c2cccc(C)n2)c(N2CCC(COc3cc([C@@H](CC(=O)O)C4CC4)ccn3)CC2)c1 [Example 65, (S)-3-((2-aminoethyl)amino)-N-(3-((2-aminoethyl)amino)-3-oxopropyl)-N-(2-(22-(2-(4-(((4-(2-carboxy-1-cyclopropylethyl)pyridin-2-yl)oxy)methyl)piperidin-1-yl)-4-methoxy-N-(6-methylpyridin-2-yl)benzamido)-21,21-dimethyldocosanamido)ethyl)-N-methyl-3-oxopropan-1-aminium chloride]",0.28 nM,–
C[C@H](C(=O)O)[C@H](c1ccc2c(c1)O[C@@H](C1CCN(Cc3cc(-n4cc(CCCCCCCCCCCCCCCCCC(=O)NCC[N+](C)(C)CCCS(=O)(=O)[O-])nn4)ccc3OC(F)(F)F)CC1)CC2)C1CC1 [Example 66],0.49 nM,–
COc1ccc(C(=O)N(CC(C)(C)CCCCCCCCCCCCCCCCCCCC(=O)NCC[N+](C)(CC(=O)NCCN)CC(=O)NCCN)c2cccc(C)n2)c(N2CCC(COc3cc([C@@H](CC(=O)O)C4CC4)ccn3)CC2)c1 [Example 67],0.38 nM,–
COc1ccc(C(=O)N(CC(C)(C)CCCCCCn2cc(CCCCCCCCCCC(=O)NCCN(CCC(=O)NCCN)CCC(=O)NCCN)nn2)c2cccc(C)n2)c(N2CCC(COc3cc([C@@H](CC(=O)O)C4CC4)ccn3)CC2)c1 [Example 68],1 nM,1.79 nM
C[C@H](C(=O)O)[C@H](c1ccc2c(c1)O[C@@H](C1CCN(Cc3cc(-n4cc(CCCCCCCCCCCCCCCCCC(=O)NCC[N+](C)(C)C)nn4)ccc3OC(F)(F)F)CC1)CC2)C1CC1 [Example 70],0.43 nM,–
C[C@H](C(=O)O)[C@H](c1ccc2c(c1)O[C@@H](C1CCN(Cc3cc(-n4cc(CCCCCCCCCCCCCCC(=O)NCC[N+](C)(CCC(=O)NCCN)CCC(=O)NCCN)nn4)ccc3OC(F)(F)F)CC1)CC2)C1CC1 [Example 72],6.74 nM,6.74 nM
COc1ccc(C(=O)N(CC(C)(C)CCCCCCn2cc(CCCCCCCCCCCCCCCCCC(=O)NCC[N+](C)(C)CCCS(=O)(=O)[O-])nn2)c2cccc(C)n2)c(N2CCC(COc3cc([C@@H](CC(=O)O)C4CC4)ccn3)CC2)c1 [Example 73],0.1 nM,–
